{"source": "patent US6465521B1", "about": "“Composition for desorbing bacteria” (Ramot University Authority for Applied Research & …, priority 1988, dated 2002)", "format_in_all_cases": "cell-based", "key": {"[1]": {"test_system": "Acinetobacter calcoaceticus RAG-1 (ATCC 31012)", "assay": "Adhesion of RAG-1 to various oils (percent drop in turbidity after vortexing with oil)", "conditions": "for Percent adhesion to: mineral oil 50 / Percent adhesion to: n-nexadecane / Percent adhesion to: soybean oil: 0.16 ml of 0.5% detergent added, vortexed 2 min", "protocol": "In one experiment Acinetobacter calcoaceticus RAG-1 (ATCC 31012) cells were grown overnight with vigorous shaking at 30 C in brain heart infusion broth. The cells were harvested by centrifugation and washed twice in 0.2% saline. The cells were then suspended in 0.2% saline to a corrected optical density of about 15 at 400 nm (1 cm light path). To 1.2 ml of suspended bacteria in 4 ml square disposable polystyrene cuvettes were added the following: 0.16 ml of 0.5% detergent in water (or water for control) and 0.24 ml water. Following brief mixing, 0.2 ml of oil was added (vs. controls with no oil added) and the mixtures vortexed vigorously for 2 min. Following about thirty minutes, the corrected turbidity of the lower aqueous phase was measured at 400 nm. Adhesion is calculated as the percent drop in turbidity following the mixing procedure.\nThe ability of another cationic surface-active agent, chlorhexidine digluconate, to enhance microbial adhesions to oil droplets is shown in the following experiment. Actnetobacter calcoaceticus RAG-1 (ATCC 31012) cells were grown overnight with vigorous shaking at 30 C in brain heart infusion broth. The cells were harvested, washed by centrifugation, and suspended in 0.2% saline to a corrected optidal density of ca. 18 at […] (1 cm light path). To 1.2 ml of suspended bacteria in 4 ml square disposable polystyrene cuvettes were added the following: 0.16 ml of 0.5% chlorhexidine digluconate in water (or water for control) and 0.24 ml water. To each cuvette 0.2 ml of oil was added (vs. control with no oil added) and the mixtures vortexed vigorously for 2 min. After about thirty minutes, the turbidity of the lower aqueous phase was measured at 400 nm and corrected for non-linearity by a standard curve. Adhesion is calculated as the percent drop in corrected turbidity following the mixing procedure."}, "Escherichia coli CSH 57": {"test_system": "Escherichia coli CSH 57", "assay": "Adhesion of Escherichia coli CSH 57 to hexadecane", "conditions": "0 without"}, "Candida albicans": {"test_system": "Candida albicans", "assay": "Adhesion of the yeast Candida albicans to hexadecane", "conditions": "for adhesion of C. albicans to hexadecane: 0.16% cetyl pyridinium chloride; for adhesion of the yeast Candida albicans: 20 without"}, "[2]": {"test_system": "Acinetobacter calcoaceticus MR-481", "assay": "Adhesion of Acinetobacter calcoaceticus MR-481 to oil droplets", "conditions": "0 without"}, "[3]": {"conditions": "0.16 ml of 0.5% chlorhexidine digluconate added, 0.2 ml oil"}}}
{"compound": "CCCCCCCCCCCCCCCC[n+]1ccccc1", "note": "[Cetylpyridinium chloride, cetylpyridinium chloride]", "values": [{"measurement": "Percent adhesion to: mineral oil 50", "setting": "[1]; 0.2 ml oil", "value": 80, "unit": "%"}, {"measurement": "Percent adhesion to: n-nexadecane", "setting": "[1]; 0.2 ml oil", "value": 83, "unit": "%"}, {"measurement": "Percent adhesion to: soybean oil", "setting": "[1]; 0.2 ml oil", "value": 47, "unit": "%"}, {"measurement": "adhesion of Escherichia coli CSH 57 to hexadecane", "setting": "Escherichia coli CSH 57; 0.08% cetylpyridinium chloride present", "value": 98, "unit": "%"}, {"measurement": "adhesion of C. albicans to hexadecane", "setting": "Candida albicans; 0.8% NaCl present", "value": 18, "unit": "%"}, {"measurement": "adhesion of C. albicans to hexadecane", "setting": "Candida albicans; no NaCl", "value": 100, "unit": "%"}, {"measurement": "Adhesion of Acinetobacter calcoaceticus MR-481", "setting": "[2]; 0.18% of cetylpyridinium chloride", "value": 97, "unit": "%"}]}
{"compound": "N=C(NCCCCCCNC(=N)NC(=N)Nc1ccc(Cl)cc1)NC(=N)Nc1ccc(Cl)cc1.O=C(O)[C@H](O)[C@@H](O)[C@H](O)[C@H](O)CO.O=C(O)[C@H](O)[C@@H](O)[C@H](O)[C@H](O)CO", "note": "[Chlorhexidine digluconate, chlorhexidine digluconate]", "values": [{"measurement": "Percent adhesion to Commerical soybean oil", "setting": "[1]; [3]", "value": 89, "unit": "%"}, {"measurement": "Percent adhesion to Sigma soybean oil", "setting": "[1]; [3]", "value": 90, "unit": "%"}, {"measurement": "Percent adhesion to isohexadecane", "setting": "[1]; [3]", "value": 94, "unit": "%"}, {"measurement": "Percent adhesion to n-hexadecane", "setting": "[1]; [3]", "value": 95, "unit": "%"}, {"measurement": "adhesion of Escherichia coli CSH 57 to hexadecane", "setting": "Escherichia coli CSH 57; 0.1% chlorhexidine digluconate present", "value": 98, "unit": "%"}, {"measurement": "adhesion of the yeast Candida albicans", "setting": "Candida albicans; 0.16% chlorhexidine digluconate", "value": 100, "unit": "%"}]}
{"compound": "CCCCCCCCCCCCOS(=O)(=O)[O-].[Na+]", "note": "[Sodium dodecyl sulphate]", "values": [{"measurement": "Percent adhesion to: mineral oil 50", "setting": "[1]; 0.2 ml oil", "value": 0, "unit": "%"}, {"measurement": "Percent adhesion to: n-nexadecane", "setting": "[1]; 0.2 ml oil", "value": 0, "unit": "%"}, {"measurement": "Percent adhesion to: soybean oil", "setting": "[1]; 0.2 ml oil", "value": 0, "unit": "%"}, {"measurement": "adhesion to all three test oils", "setting": "[1]; added at the same concentration as the cetylpyridinium chloride (w/v)", "value": 0, "unit": "%"}]}
{"compound": "chitosan", "values": [{"measurement": "adhesion of Escherichia coli CSH 57 to hexadecane", "setting": "Escherichia coli CSH 57; 0.015% chitosan present", "value": 97, "unit": "%"}, {"measurement": "adhesion of the yeast Candida albicans", "setting": "Candida albicans; 0.025% chitosan", "value": 95, "unit": "%"}, {"measurement": "Adhesion of Acinetobacter calcoaceticus MR-481", "setting": "[2]; 0.019% of chitosan", "value": 99, "unit": "%"}]}
